Experimental data: US10669268B2, “Bicyclic derivatives” (Hoffmann-La Roche Inc., priority 2012, dated 2020)
pIC50: −log10 of the molar value. Where a name gives a salt, the structure may show the parent alone.

Molecular target: ATX (human His-tagged) (Homo sapiens (Human), UniProt Q13822)
Experiment: Human ATX enzyme inhibition assay (fluorescence quenching, MR121 substrate)
Format: biochemical
Conditions: 30 nM ATX, 1 μM MR121 substrate, 30° C., pH 8.0
Summary of the method: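 Tris-HCl buffer at pH 8.0 contained 140 mM NaCl, 5 mM KCl, 1 mM each CaCl2 and MgCl2, and 0.01% Triton X-100. The MR121 substrate (1 μM final) was incubated with enzyme for 15 min at 30 °C, and activity was read by fluorescence quenching.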

Row | SMILES | pIC50
1 | COC(c1cccc(COC(=O)N2C[C@@H]3CN(C(=O)c4ccc5[nH]nnc5c4)C[C@@H]3C2)c1)C(F)(F)F (stereo partly drawn) [Example 4.20, cis-5-(1H-benzotriazole-5-carbonyl)-hexahydro-pyrrolo[3,4-c]pyrrole-2-carboxylic acid 3-(2,2,2-trifluoro-1-methoxy-ethyl)-benzyl ester] | 6.14
2 | Cc1cc(OCC(=O)N2CC[C@@H]3CN(C(=O)c4ccc5[nH]nnc5c4)C[C@@H]3CC2)c(C(C)C)cc1Cl [Example 1.35, 1-[(3aS,8aR)-2-(1H-benzotriazole-5-carbonyl)-octahydro-pyrrolo[3,4-d]azepin-6-yl]-2-(4-chloro-2-isopropyl-5-methyl-phenoxy)-ethanone] | 8.00
3 | O=C(OCc1cc(Cl)cc(Cl)c1)N1C[C@H]2C[C@@H](Oc3ccc4[nH]c(=O)oc4c3)C[C@H]2C1 [Example 3.01, (3aR,5r,6aS)-3,5-Dichlorobenzyl 5-(2-oxo-2,3-dihydrobenzo[d]oxazol-6-yloxy)hexahydrocyclopenta[c]pyrrole-2(1H)-carboxylate] | 5.96
4 | Cc1ccc(C(C)C)c(OCC(=O)N2C[C@@H]3CN(C(=O)c4ccc5[nH]nnc5c4)C[C@H]3C2)c1 [Example 19, 1-[(3aS,6aS)-5-(1H-benzotriazole-5-carbonyl)-hexahydro-pyrrolo[3,4-c]pyrrol-2-yl]-2-(2-isopropyl-5-methyl-phenoxy)-ethanone] | 8.15
5 | O=C(OCc1ccc(OC(F)(F)F)cc1)N1C[C@@H]2CN(C(=O)c3ccc4[nH]nnc4n3)C[C@H]2C1 [Example 4.42, (3aS,6aS)-5-(1H-[1,2,3]triazolo[4,5-b]pyridine-5-carbonyl)-hexahydro-pyrrolo[3,4-c]pyrrole-2-carboxylic acid 4-trifluoromethoxy-benzyl ester] | 7.62
6 | O=C(CCc1ccc(F)cc1C(F)(F)F)N1CC[C@@H]2CN(C(=O)c3ccc4[nH]nnc4c3)C[C@@H]2CC1 [Example 17.05, 1-((3aR,8aS)-2-(1H-benzo[d][1,2,3]triazole-5-carbonyl)octahydropyrrolo[3,4-d]azepin-6(7H)-yl)-3-(4-fluoro-2-(trifluoromethyl)phenyl)propan-1-one] | 8.22
7 | O=C(COc1ccc(OC(F)(F)F)cc1)N1CC[C@@H]2CN(C(=O)c3ccc4[nH]nnc4c3)C[C@H]2C1 (relative stereo) [Example 1.25, 1-[trans-2-(1H-benzotriazole-5-carbonyl)-octahydro-pyrrolo[3,4-c]pyridin-5-yl]-2-(4-trifluoromethoxy-phenoxy)-ethanone] | 6.94
8 | O=C(c1ccc2[nH]nnc2c1)N1C[C@@H]2CN(S(=O)(=O)CCc3cccc(Cl)c3)C[C@@H]2C1 [Example 1.12, (1H-benzotriazol-5-yl)-{(3aS,6aR)-5-[2-(3-chloro-phenyl)-ethanesulfonyl]-hexahydro-pyrrolo[3,4-c]pyrrol-2-yl}-methanone] | 5.03
9 | O=C(/C=C/c1ccc(OC(F)(F)F)cc1)N1CC[C@@H]2CN(C(=O)NCc3cnn[nH]3)C[C@@H]2CC1 [Example 9, (3aR,8aS)—N-((1H-1,2,3-Triazol-5-yl)methyl)-6-((E)-3-(4-(trifluoromethoxy)phenyl)-acryloyl)octahydropyrrolo[3,4-d]azepine-2(1H)-carboxamide] | 6.15
10 | O=C(/C=C/c1ccc(OC(F)(F)F)c(Cl)c1)N1C[C@H]2CCN(C(=O)c3ccc4[nH]nnc4c3)C[C@@H]2C1 [Example 15.75] | 8.30
11 | Cc1cc(OC(F)(F)F)ccc1CCC(=O)N1CC[C@@H]2CN(C(=O)c3ccc4[nH]nnc4c3)C[C@@H]2CC1 [Example 17.06, 1-((3aR,8aS)-2-(1H-benzo[d][1,2,3]triazole-5-carbonyl)octahydropyrrolo[3,4-d]azepin-6(7H)-yl)-3-(2-methyl-4-(trifluoromethoxy)phenyl)-propan-1-one] | 8.00
12 | O=C(/C=C/c1cc(Cl)cc(Cl)c1)N1C[C@H]2CCN(C(=O)c3ccc4[nH]nnc4c3)C[C@@H]2C1 [Example 15.76] | 7.89
13 | O=C(c1cc2ccccc2c(OCC(F)(F)F)n1)N1C[C@@H]2CN(C(=O)[C@@H]3CCc4[nH]nnc4C3)C[C@H]2C1 [Example 19.28, [(3aS,6aS)-5-[(5R)-4,5,6,7-tetrahydro-1H-benzotriazole-5-carbonyl]-1,3,3a,4,6,6a-hexahydropyrrolo[3,4-c]pyrrol-2-yl]-[1-(2,2,2-trifluoroethoxy)isoquinolin-3-yl]methanone] | 8.70
14 | O=C(CCc1ccccc1C1CC1)N1CC[C@@H]2CN(C(=O)c3ccc4[nH]nnc4c3)C[C@@H]2CC1 [Example 17.19, 1-((3aR,8aS)-2-(1H-benzo[d][1,2,3]triazole-5-carbonyl)octahydropyrrolo[3,4-d]azepin-6(7H)-yl)-3-(2-cyclopropylphenyl)propan-1-one] | 7.92

Second part, the compound after the results:

Row | pIC50 | SMILES
15 | 5.17 | O=C(/C=C/c1ccc(OC(F)(F)F)cc1)N1CC[C@@H]2CN(C(=O)[C@@H]3Cc4[nH]cnc4CN3)C[C@@H]2CC1 [Example 18, (E)-3-[4-(Trifluoro-methoxy)-phenyl]-1-[(3aS,8aR)-2-((S)-4,5,6,7-tetrahydro-1H-imidazo[4,5-c]pyridine-6-carbonyl)-octahydro-pyrrolo[3,4-d]azepin-6-yl]-prop-2-en-1-one hydrochloride]
16 | 8.40 | O=C(CCc1cc(Cl)cc(C(F)(F)F)c1)N1CC[C@@H]2CN(C(=O)c3ccc4[nH]nnc4c3)C[C@@H]2CC1 [Example 17.17, 1-((3aR,8aS)-2-(1H-benzo[d][1,2,3]triazole-5-carbonyl)octahydropyrrolo[3,4-d]azepin-6(7H)-yl)-3-(3-chloro-5-(trifluoromethyl)phenyl)propan-1-one]
17 | 6.33 | O=C(CCc1ccc(OC(F)(F)F)cc1)N1CC[C@@H]2CN(C(=O)NCCc3cnn[nH]3)C[C@@H]2CC1 [Example 17.14, (3aS,8aR)-6-[3-(4-trifluoromethoxy-phenyl)-propionyl]-octahydro-pyrrolo[3,4-d]azepine-2-carboxylic acid [2-(3H-[1,2,3]triazol-4-yl)-ethyl]-amide]
18 | 7.51 | O=C(CCc1ccc(-c2ccccn2)cc1)N1C[C@@H]2CN(C(=O)c3ccc4[nH]nnc4c3)C[C@H]2C1 [Example 17.13, 1-[(3aR,6aR)-5-(1H-benzotriazole-5-carbonyl)-hexahydro-pyrrolo[3,4-c]pyrrol-2-yl]-3-(4-pyridin-2-yl-phenyl)-propan-1-one]
19 | 7.47 | O=C(/C=C/c1ccc(F)cc1F)N1CC[C@@H]2CN(C(=O)c3ccc4[nH]nnc4c3)C[C@@H]2CC1 [Example 15.29]
20 | 7.68 | CCOc1cc(C(=O)N2C[C@@H]3CN(C(=O)c4ccc5[nH]nnc5c4F)C[C@H]3C2)nc2ccccc12 [Example 1.61, (4-ethoxyquinolin-2-yl)((3aS,6aS)-5-(4-fluoro-1H-benzo[d][1,2,3]triazole-5-carbonyl)hexahydropyrrolo[3,4-c]pyrrol-2(1H)-yl)methanone]
21 | 7.66 | O=C(OCc1ccc(OC(F)(F)F)cc1)N1C[C@@H]2CN(C(=O)c3cc4nn[nH]c4cc3F)C[C@H]2C1 [Example 1.54, (3aS,6aS)-5-(6-fluoro-1H-benzotriazole-5-carbonyl)-hexahydro-pyrrolo[3,4-c]pyrrole-2-carboxylic acid 4-trifluoromethoxy-benzyl ester]
22 | 8.70 | COc1cc(CCC(=O)N2C[C@@H]3CN(C(=O)c4ccc5[nH]nnc5c4)C[C@H]3C2)cc(OC(F)(F)F)c1 [Example 17.20, 1-[(3aR,6aR)-5-(1H-benzotriazole-5-carbonyl)-1,3,3a,4,6,6a-hexahydropyrrolo[3,4-c]pyrrol-2-yl]-3-[3-methoxy-5-(trifluoromethoxy)phenyl]propan-1-one]
23 | 7.80 | O=C(OCc1ccc(OC(F)(F)F)c(F)c1)N1C[C@@H]2CN(C(=O)c3ccc4[nH]nnc4n3)C[C@H]2C1 [Example 4.40, (3aS,6aS)-5-(1H-[1,2,3]triazolo[4,5-b]pyridine-5-carbonyl)-hexahydro-pyrrolo[3,4-c]pyrrole-2-carboxylic acid 3-fluoro-4-trifluoromethoxy-benzyl ester]
24 | 7.85 | CC(C)c1cc(C#N)ccc1OCC(=O)N1CC[C@@H]2CN(C(=O)c3ccc4[nH]nnc4c3)C[C@@H]2CC1 [Example 1.43, 4-[2-[(3aS,8aR)-2-(1H-benzotriazole-5-carbonyl)-1,3,3a,4,5,7,8,8a-octahydropyrrolo[3,4-d]azepin-6-yl]-2-oxoethoxy]-3-propan-2-ylbenzonitrile]
25 | 5.54 | O=C(OCC1C2CCCCC21)N1C[C@@H]2CN(C(=O)c3ccc4[nH]nnc4c3)C[C@@H]2C1 (stereo partly drawn) [Example 4.13, (3aS,6aR)-5-(1H-benzotriazole-5-carbonyl)-hexahydro-pyrrolo[3,4-c]pyrrole-2-carboxylic acid bicyclo[4.1.0]hept-7-ylmethyl ester]
26 | 7.85 | CC(C)Oc1cc(C#N)ccc1COC(=O)N1C[C@@H]2CN(C(=O)c3ccc4[nH]nnc4c3)C[C@H]2C1 [Example 4.65, (3aS,6aS)-5-(1H-benzotriazole-5-carbonyl)-hexahydro-pyrrolo[3,4-c]pyrrole-2-carboxylic acid 4-cyano-2-isopropoxy-benzyl ester]
27 | 8.70 | CC(C)c1cc(C#N)ccc1CCC(=O)N1C[C@@H]2CN(C(=O)c3ccc4[nH]nnc4c3)C[C@H]2C1 [Example 19.22, 4-[3-[(3aR,6aR)-5-(1H-benzotriazole-5-carbonyl)-1,3,3a,4,6,6a-hexahydropyrrolo[3,4-c]pyrrol-2-yl]-3-oxopropyl]-3-propan-2-ylbenzonitrile]
28 | 6.72 | O=C(/C=C/c1ccc(OC(F)(F)F)cc1)N1CC[C@@H]2CN(C(=O)N3CCc4[nH]c(=O)ccc4C3)C[C@@H]2CC1 [Example 8.04]
29 | 7.38 | COc1ccc(/C=C/C(=O)N2CC[C@@H]3CN(C(=O)c4ccc5[nH]nnc5c4)C[C@@H]3CC2)cc1 [Example 15.09]
30 | 7.57 | O=C(COc1ccccc1-c1ccccc1)N1C[C@@H]2CN(C(=O)c3ccc4[nH]nnc4c3)C[C@H]2C1 [Example 15.88]
